From patent US11807835B2, “Detergent compositions containing a stabilized enzyme by phosphonates” (ECOLAB USA INC., priority 2016, dated 2023)

System: lipase
Assay: Lipase activity retention in detergent use solution (4000 ppm, 5 GPG water; p-nitrophenyl valerate, TRIS buffer pH 8.0)
Assay type: biochemical
Details: for Relative Lipase Enzyme Activity in a Use Solution: Table 6E, room temperature; for Relative Lipase Enzyme Activity in a Use Solution of the All Ash Detergent Composition: Table 6F, all ash formula, 120º F.; for Relative Lipase Enzyme Activity: base formula
In short: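 Lipase stability was measured in a detergent use solution under conditions mimicking presoak or manual warewash, with stirring in a water bath. Aliquots were taken over time and flash-frozen. Thawed samples were diluted in TRIS buffer at pH 8.0 and assayed with p-nitrophenyl valerate as substrate on a plate reader. Activity is reported as % retained relative to the time=0 sample.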

[1] = phosphonate 0.3 wt-%, time 0 min
[2] = phosphonate 0.3 wt-%, time 5 min
[3] = phosphonate 0.3 wt-%, time 10 min
[4] = phosphonate 0.3 wt-%, time 20 min
[5] = phosphonate 0.3 wt-%, time 40 min
[6] = phosphonate 0.3 wt-%, time 60 min
[7] = phosphonate 0.3 wt-%, time 90 min
[8] = phosphonate 0.3 wt-%, time 120 min
[9] = phosphonate 0.3 wt-%, time 150 min
[10] = phosphonate 0.3 wt-%, time 180 min
[11] = phosphonate 0.3 wt-%, time 210 min
[12] = phosphonate 0.3 wt-%, time 240 min

Structure (SMILES): CC(O)(P(=O)(O)O)P(=O)(O)O [HEDP, 1-hydroxy ethylidene-1,1-diphosphonic acid]
- Relative Lipase Enzyme Activity in a Use Solution [1]: 100.00%
- Relative Lipase Enzyme Activity in a Use Solution [2]: 101.22%
- Relative Lipase Enzyme Activity in a Use Solution [3]: 102.97%
- Relative Lipase Enzyme Activity in a Use Solution [4]: 98.65%
- Relative Lipase Enzyme Activity in a Use Solution [5]: 81.12%
- Relative Lipase Enzyme Activity in a Use Solution [6]: 89.82%
- Relative Lipase Enzyme Activity in a Use Solution [7]: 104.91%
- Relative Lipase Enzyme Activity in a Use Solution [8]: 100.99%
- Relative Lipase Enzyme Activity in a Use Solution [9]: 100.18%
- Relative Lipase Enzyme Activity in a Use Solution [10]: 100.45%
- Relative Lipase Enzyme Activity in a Use Solution [11]: 98.87%
- Relative Lipase Enzyme Activity in a Use Solution [12]: 99.95%
- Relative Lipase Enzyme Activity in a Use Solution of the All Ash Detergent Composition [1]: 100.00%
- Relative Lipase Enzyme Activity in a Use Solution of the All Ash Detergent Composition [2]: 39.01%
- Relative Lipase Enzyme Activity in a Use Solution of the All Ash Detergent Composition [3]: 21.35%
- Relative Lipase Enzyme Activity in a Use Solution of the All Ash Detergent Composition [4]: 7.45%
- Relative Lipase Enzyme Activity in a Use Solution of the All Ash Detergent Composition [5]: 0.88%
- Relative Lipase Enzyme Activity in a Use Solution of the All Ash Detergent Composition [6]: −0.91%
- Relative Lipase Enzyme Activity in a Use Solution of the All Ash Detergent Composition [7]: −1.68%
- Relative Lipase Enzyme Activity in a Use Solution of the All Ash Detergent Composition [8]: −1.38%
- Relative Lipase Enzyme Activity in a Use Solution of the All Ash Detergent Composition [9]: −1.94%
- Relative Lipase Enzyme Activity in a Use Solution of the All Ash Detergent Composition [10]: −4.15%
- Relative Lipase Enzyme Activity in a Use Solution of the All Ash Detergent Composition [11]: −4.41%
- Relative Lipase Enzyme Activity in a Use Solution of the All Ash Detergent Composition [12]: −3.60%
- Relative Lipase Enzyme Activity (phosphonate 0.3 wt-%, use solution at 120° F., time 0 min): 100.00%
- Relative Lipase Enzyme Activity (phosphonate 0.3 wt-%, use solution at 120° F., time 5 min): 47.15%
- Relative Lipase Enzyme Activity (phosphonate 0.3 wt-%, use solution at 120° F., time 10 min): 44.35%
- Relative Lipase Enzyme Activity (phosphonate 0.3 wt-%, use solution at 120° F., time 20 min): 34.94%
- Relative Lipase Enzyme Activity (phosphonate 0.3 wt-%, use solution at 120° F., time 40 min): 23.40%
- Relative Lipase Enzyme Activity (phosphonate 0.3 wt-%, use solution at 120° F., time 60 min): 17.75%
- Relative Lipase Enzyme Activity (phosphonate 0.3 wt-%, use solution at 120° F., time 90 min): 11.06%
- Relative Lipase Enzyme Activity (phosphonate 0.3 wt-%, use solution at 120° F., time 120 min): 6.92%
- Relative Lipase Enzyme Activity (phosphonate 0.3 wt-%, use solution at 120° F., time 150 min): 5.38%
- Relative Lipase Enzyme Activity (phosphonate 0.3 wt-%, use solution at 120° F., time 180 min): 2.90%
- Relative Lipase Enzyme Activity (phosphonate 0.3 wt-%, use solution at 120° F., time 210 min): 2.62%
- Relative Lipase Enzyme Activity (phosphonate 0.3 wt-%, use solution at 120° F., time 240 min): 2.32%
- Relative Lipase Enzyme Activity (phosphonate 0.6 wt-%, use solution at 120º F., time 0 min): 100.00%
- Relative Lipase Enzyme Activity (phosphonate 0.6 wt-%, use solution at 120º F., time 5 min): 62.99%
- Relative Lipase Enzyme Activity (phosphonate 0.6 wt-%, use solution at 120º F., time 10 min): 59.92%
- Relative Lipase Enzyme Activity (phosphonate 0.6 wt-%, use solution at 120º F., time 20 min): 48.34%
- Relative Lipase Enzyme Activity (phosphonate 0.6 wt-%, use solution at 120º F., time 40 min): 33.30%
- Relative Lipase Enzyme Activity (phosphonate 0.6 wt-%, use solution at 120º F., time 60 min): 23.22%
- Relative Lipase Enzyme Activity (phosphonate 0.6 wt-%, use solution at 120º F., time 90 min): 17.91%
- Relative Lipase Enzyme Activity (phosphonate 0.6 wt-%, use solution at 120º F., time 120 min): 14.72%
- Relative Lipase Enzyme Activity (phosphonate 0.6 wt-%, use solution at 120º F., time 150 min): 12.63%
- Relative Lipase Enzyme Activity (phosphonate 0.6 wt-%, use solution at 120º F., time 180 min): 7.01%
- Relative Lipase Enzyme Activity (phosphonate 0.6 wt-%, use solution at 120º F., time 210 min): 8.08%
- Relative Lipase Enzyme Activity (phosphonate 0.6 wt-%, use solution at 120º F., time 240 min): 5.20%
- Relative Lipase Enzyme Activity (phosphonate at 0.1% elemental phosphorus, at 120º F. or at room temperature (as titled), time 0 min): 100.00%
- Relative Lipase Enzyme Activity (phosphonate at 0.1% elemental phosphorus, at 120º F. or at room temperature (as titled), time 5 min): 79.12%
- Relative Lipase Enzyme Activity (phosphonate at 0.1% elemental phosphorus, at 120º F. or at room temperature (as titled), time 10 min): 67.70%
- Relative Lipase Enzyme Activity (phosphonate at 0.1% elemental phosphorus, at 120º F. or at room temperature (as titled), time 20 min): 51.16%
- Relative Lipase Enzyme Activity (phosphonate at 0.1% elemental phosphorus, at 120º F. or at room temperature (as titled), time 40 min): 25.69%
- Relative Lipase Enzyme Activity (phosphonate at 0.1% elemental phosphorus, at 120º F. or at room temperature (as titled), time 60 min): 19.99%
- Relative Lipase Enzyme Activity (phosphonate at 0.1% elemental phosphorus, at 120º F. or at room temperature (as titled), time 90 min): 16.10%
